We go through 17 molecules from patent publication US20130005644A1, “CYCLIC AGONISTS AND ANTAGONISTS OF C5A RECEPTORS AND G PROTEIN-COUPLED RECEPTORS” (PROMICS PTY LIMITED, priority 1997, published 2013).

Where two headings read alike, the source gives them in different places. Where a SMILES comes first, the peptide text is derived from it. [ ]: non-standard residue; d: D form. dCha = N[C@H](CC1CCCCC1)C(=O)O

In one assay the test system is human fetal artery. To be noted: C5a agonist analogues; cited from earlier work.
Assay [1] has as its target T1, C5a receptor (Homo sapiens, UniProt P21730).
T1 construct: endogenous in cells; host or cells: fresh human polymorphonuclear leukocytes (PMNs), intact cells
T1 sequence (P21730 1-350): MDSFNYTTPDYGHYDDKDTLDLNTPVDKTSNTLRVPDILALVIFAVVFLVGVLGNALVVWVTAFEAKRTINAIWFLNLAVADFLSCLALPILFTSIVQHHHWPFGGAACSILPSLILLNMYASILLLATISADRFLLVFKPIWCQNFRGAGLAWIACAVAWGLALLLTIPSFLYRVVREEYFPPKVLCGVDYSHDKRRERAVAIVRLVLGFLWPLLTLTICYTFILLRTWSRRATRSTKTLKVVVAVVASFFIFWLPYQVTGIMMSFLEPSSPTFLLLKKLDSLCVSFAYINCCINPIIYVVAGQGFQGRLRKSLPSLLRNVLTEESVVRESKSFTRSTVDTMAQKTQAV
To be noted: human PMN; C5a agonist analogues; read-out: PMN Enzyme Release EC50; cited from earlier work.

The target in assay [2] is T2, C5aR (Homo sapiens, UniProt P21730).
T2 construct: endogenous in cells; host or cells: fresh human polymorphonuclear leukocytes (PMNs), intact cells
T2 sequence (P21730 1-350): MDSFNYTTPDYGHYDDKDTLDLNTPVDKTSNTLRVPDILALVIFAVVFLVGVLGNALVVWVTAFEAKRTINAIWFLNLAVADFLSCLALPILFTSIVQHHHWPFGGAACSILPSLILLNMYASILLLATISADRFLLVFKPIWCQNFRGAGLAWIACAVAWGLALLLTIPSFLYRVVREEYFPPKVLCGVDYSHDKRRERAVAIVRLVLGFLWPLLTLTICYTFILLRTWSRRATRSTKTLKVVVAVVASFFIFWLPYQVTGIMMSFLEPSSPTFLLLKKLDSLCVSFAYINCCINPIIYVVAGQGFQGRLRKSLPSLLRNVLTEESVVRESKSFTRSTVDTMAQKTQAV
To be noted: cited from earlier work.

Assay [3] addresses T1, C5a receptor. In words: Myeloperoxidase release from human PMNs mediated by 100 nM C5a (antagonist potency). To be noted: for IC50: 50% inhibition of C5a (100 nM)-caused release of MPO from PMNs, mean ± SE, read-out: pD2 ± SE (antagonist potency) (converted). The class given is cell-based.
Assay [4] addresses T1, C5a receptor. In words: Agonist activity in human PMNs. The class given is cell-based. As to the method: Cells were isolated as previously described (Sanderson et al, 1995) and incubated with cytochalasin B (5 μg/mL, 15 min, 37° C.). Hank's Balanced Salt solution containing 0.15% gelatin and peptide was added on to a 96 well plate (total volume 100 μL/well), followed by 25 μL cells (4×10^6/mL). To assess the capacity of each peptide to antagonise C5a, cells were incubated for 5 min at 37° C. with each peptide, followed by addition of C5a (100 nM) and further incubation for 5 min. Then 50 μL of sodium phosphate (0.1M, pH 6.8) was added to each well, the plate was cooled to room temperature, and 25 μL of a fresh mixture of equal volumes of dimethoxybenzidine (5.7 mg/mL) and H2O2 (0.51%) was added to each well. The reaction was stopped at 10 min by addition of 2% sodium azide. Absorbances were measured at 450 nm in a Bioscan 450 plate reader, corrected for control values (no peptide), and analysed by non-linear regression.

Assay [5] deals with C5a-induced neutropenia in Wistar rats. In words: C5a-induced neutropenia in vivo. To be noted: 1 mg/kg i.v. given prior to 2 μg C5a i.v. As to the method: Compounds were evaluated in an acute model of C5a-induced neutropenia. Transient neutropenia maximises 5 min after i.v. C5a and is profound, with >90% of circulating neutrophils disappearing from circulation at effective doses of C5a, as shown in FIG. 8. The neutropenia is due to transient adherence of circulating neutrophils to the vascular endothelium.

For assay [6], the system named is LPS-induced neutropenia in Wistar rats. The assay is described as follows: LPS-induced neutropenia and haematocrit change. The class given is in vivo. The protocol:
LPS causes rapid neutropenia in rats. If this effect of LPS is blocked by C5a antagonists, then C5a may be of major importance in the acute effects of LPS, and the results shown in FIG. 9 were in agreement with this hypothesis. C5a antagonists were injected (bolus i.v.) 10 min prior to challenge with LPS. Rats were anaesthetised, and blood samples (0.3 ml) were taken for measurements of PMNs. PMNs are isolated and quantified.

Assay [7] has as its target T2, C5aR. The assay is described as follows: Receptor-binding assay: inhibition of 125I-C5a binding to intact human PMNs.
For assay [8], the system named is carrageenan-induced paw oedema in Wistar rats. The assay is described as follows: Carrageenan-induced rat paw oedema. In kind it is in vivo. To be noted: 1 mg/kg i.p. 30 min prior to carrageenan, after 180 and 270 min. The protocol: Alternatively, a routine carrageenan paw oedema was developed in Wistar rats by administering a pedal injection of carrageenan to elicit oedema which is visible in 2 h and maximised in 4 h. […] See Fairlie, D. P. et al (1987). Also see Walker and Whitehouse (1978).
Paw swelling was measured for up to 4.5 hr.

Where [9] appears, read: PMN C5aR, Finch et al, 1997, read-out: Binding Affinity IC50.
Setting [10] is: dose range 0.1 nM-1 mM, human PMNs.
The mark [11] stands for this setting: 50% inhibition in the binding of [125I]C5a to intact PMNs, mean ± SE, read-out: pD2 ± SE (binding) (converted).

What is called EC50 is the midpoint of the concentration-response curve. In the case of “YSFKDMPLaR [Compound 3, C5a agonist analogue]”, the EC50 in the assay on human fetal artery is 0.5 µM; on C5a receptor [1] it was 72 µM. The IC50 at C5aR [2] (setting [9]) is 3.7 µM.
Turning to C5a12-20-ahxYSFKPMPLaR [Compound 6], the 50% effective concentration (EC50) in the assay with human fetal artery is 0.08 µM; on C5a receptor [1], 0.7 µM. Also, the IC50 on C5aR [2] (setting [9]) was 0.07 µM.
Regarding `CN[C@@H](Cc1ccccc1)C(=O)N[C@@H](CCCCN)C(=O)N1CCC[C@H]1C(=O)N[C@H](CC1CCCCC1)C(=O)N[C@@H](Cc1c[nH]c2ccccc12)C(=O)N[C@H](CCCNC(=N)N)C(=O)O` [Compound 7, N-methylphenylalanine-lysine-proline-D-cyclohexylalanine-tryptophan-D-arginine, reference compound], the “antagonist activity against C5a and agonist decapeptide analogue 4” value on C5a receptor [3] (human PMNs) is “shows antagonist activity”. The “Agonist Activity” value at C5a receptor [4] (setting [10]) is recorded as “no agonist properties”; at C5a receptor [4] (dose range 0.1 nM-1 mM, human PMNs, listed as SEQ. ID NO: 7), “No”.
`CC(=O)N[C@@H](Cc1ccccc1)C(=O)N[C@H]1CCCCNC(=O)[C@@H](CCCNC(=N)N)NC(=O)[C@H](Cc2c[nH]c3ccccc23)NC(=O)[C@@H](CC2CCCCC2)NC(=O)[C@@H]2CCCN2C1=O` [Compound 11, Ac-F-[KP(dCha)Wr]: the “Agonist Activity” value is listed as “No” at C5a receptor [4] (Table 5, cyclic molecules) and “No” on C5a receptor [4] (setting [10]).
For F-[OPdChaWR], in assay [5], the C5a-induced neutropenia result was “inhibits C5a-induced neutropenia”. Besides, the LPS-induced neutropenia entry in assay [6] (1 mg/kg i.v. 10 min prior to i.v. LPS, rats) is given as “inhibits neutropenia”. Further, in assay [6] (0.03-10 mg/kg i.v., 10 min prior to LPS 1 mg/kg i.v., Wistar rats), the “LPS-induced changes in haematocrit” value was “inhibition of LPS-induced neutropenia and changes in haematocrit”.
For the molecule `CN[C@@H](Cc1ccccc1)C(=O)N[C@@H](CCCCN)C(=O)N1CCC[C@H]1C(=O)N[C@H](CC1CCCCC1)C(=O)N[C@@H](Cc1c[nH]c2ccccc12)C(=O)N[C@H](CCCNC(=N)N)C(N)=O` [Compound 8, MeFKP(dCha) Wr-CONH2], the “reduction of receptor-affinity versus 7” value at C5aR [7] (conversion to the amide) is “approximately 5 fold”. In addition, the “reduction of antagonist activity versus 7” value on C5a receptor [3] (conversion to the amide) is recorded as “approximately 5 fold”. In addition, the “Agonist Activity” value on C5a receptor [4] (setting [10]) is on record as “No”.
`N=C(N)NCCC[C@@H]1NC(=O)[C@H](Cc2c[nH]c3ccccc23)NC(=O)[C@@H](CC2CCCCC2)NC(=O)[C@@H]2CCCN2C(=O)[C@@H](NC(=O)[C@@H](N)Cc2ccccc2)CCCCNC1=O` [Compound 28, F-[KPdChaWR]]: the results for the IC50 on C5aR [7] (setting [11]) and on C5a receptor [3] were 0.316 µM and 0.204 µM, respectively.
The like results for `N=C(N)NCCC[C@H]1NC(=O)[C@H](Cc2c[nH]c3ccccc23)NC(=O)[C@@H](CC2CCCCC2)NC(=O)[C@@H]2CCCN2C(=O)[C@@H](NC(=O)[C@@H](N)Cc2ccccc2)CCCCNC1=O` [Compound 26, F-[KPdChaWr]] were, in that order, 8.13 µM and 2.82 µM.
As to `CN[C@@H](Cc1ccccc1)C(=O)N[C@@H](CCCCN)C(=O)N1CCC[C@H]1C(=O)N[C@H](CC1CCCCC1)C(=O)N[C@@H](Cc1c[nH]c2ccccc12)C(=O)N[C@@H](CCCNC(=N)N)C(=O)O` [Compound 9, MeFKP(dCha)WR], the “Agonist Activity” value on C5a receptor [4] (setting [10]) is reported as “No”.
Consider C5a37-46-ahxYSFKPMPLaR [Compound 5], for which the EC50 in the assay on human fetal artery is 0.06 µM; at C5a receptor [1] it was 5.9 µM. Besides, the IC50 on C5aR [2] (setting [9]) is 0.7 µM.
As for `N=C(N)NCCC[C@H]1NC(=O)[C@H](Cc2c[nH]c3ccccc23)NC(=O)[C@@H](CC2CCCCC2)NC(=O)[C@@H]2CCCN2C(=O)[C@H](Cc2c[nH]c3ccccc23)NC(=O)[C@H](Cc2ccccc2)NC1=O` [Compound 19, [FWPdChaWr]] (cyclo(FWP[dCha]W[dR]); ring closure inferred), the “pD2 ± SE (binding)” value at C5aR [7] (50% inhibition in the binding of [125I]C5a to intact PMNs, mean ± SE) was 4.37 ± 0.36.
As for `CC(=O)N[C@@H](Cc1ccccc1)C(=O)N[C@H]1CCCCNC(=O)[C@H](CCCNC(=N)N)NC(=O)[C@H](Cc2c[nH]c3ccccc23)NC(=O)[C@@H](CC2CCCCC2)NC(=O)[C@@H]2CCCN2C1=O` [Compound 18], the “Agonist Activity” value at C5a receptor [4] (Table 5, cyclic molecules) is on record as “No”.
Consider `CC(=O)N[C@@H](Cc1ccccc1)C(=O)N[C@H]1CCCNC(=O)[C@@H](CCCNC(=N)N)NC(=O)[C@H](Cc2c[nH]c3ccccc23)NC(=O)[C@@H](CC2CCCCC2)NC(=O)[C@@H]2CCCN2C1=O` [Compound 12, Ac-F-[OP(dCha)Wr], for which the “increase in receptor-binding affinity over decapeptide C-terminus of C5a (1)” value at C5aR [7] is on record as 10^4. Besides, the “times less active than 17 in vitro as a C5a antagonist in PMNs” value on C5a receptor [3] is reported as 100 times. Moreover, the “Agonist Activity” value on C5a receptor [4] (Table 5, cyclic molecules) is given as “No”; on C5a receptor [4] (setting [10]) it was “No”. The “development of carrageenan paw oedema (paw swelling)” value in assay [8] is “significantly inhibits development of the oedema”.
As for “C5a65-74 (ISHKDMQLGR) [Compound 1, decapeptide C-terminus of C5a]”, the EC50 with human fetal artery and with C5a receptor [1] was > 1000 µM in each case. Further, the IC50 with C5aR [2] (setting [9]) is > 1000 µM; in the assay with C5aR [2] (literature values (Finch et al, 1997; Kawai et al, 1991), read-out: Receptor Affinity IC50), > 1000 µM.
With “YSFKDMQLGR [Compound 2, C5a agonist analogue]”, the EC50 is 9.6 µM in the assay with human fetal artery and 92 µM on C5a receptor [1]. The IC50 at C5aR [2] (setting [9]) was 1.3 µM.
As for `N=C(N)NCCC[C@@H]1NC(=O)[C@H](Cc2c[nH]c3ccccc23)NC(=O)[C@@H](CC2CCCCC2)NC(=O)[C@@H]2CCCN2C(=O)[C@@H](NC(=O)[C@@H](N)Cc2ccccc2)CCNC1=O` [Compound 15, F-[X^2PdChaWR]], the IC50 on C5aR [7] (setting [11]) was 0.316 µM; at C5aR [7] (Table 5, cyclic molecules, read-out: Receptor Affinity), 0.3 µM; on C5a receptor [3], 0.0437 µM. In addition, on C5a receptor [3] (in vitro on human PMNs), the “inhibition of the action of C5a and the binding of 125I-C5a to its receptor” value is on record as “potent inhibitors at nM concentrations”. Besides, the “Agonist Activity” value at C5a receptor [4] (Table 5, cyclic molecules) is “No”.

B1: C5a: human recombinant C5a, 74 amino acid complement glycoprotein (protein)
chain: TLQKKIEEIAAKYKHSVVKKCCYDGACVNNDETCEQRAARISLGPRCIKAFTECCVVASQLRANISHKDMQLGR
B1: the “Agonist Activity” value with C5a receptor [4] (setting [10]) was “Yes”. Also, the EC50 was 0.02 µM in the assay with human fetal artery and 0.03 µM with C5a receptor [1]. The IC50 in the assay with C5aR [2] (setting [9]) was 0.0006 µM.
